Square brackets hold non-standard residues; d marks the D form. Peptide text beside a SMILES is read from it.
Experiments:
Format in all cases: cell-based
E. coli ATCC25922 = assay: Salt, serum, acid and alkaline sensitivity; details: for MIC, Control: absence of physiological salts, serum, acid and alkaline; for MIC, FeCl3: in presence of 4μM FeCl3 (final); for MIC, MgCl2: in presence of 1 mM MgCl2; for MIC, KCl: in presence of 4.5 mM KCl (final); for MIC, NaCl: in presence of 150 mM NaCl (final); for MIC, PH=2: peptide incubated at pH=2 for 4 h prior to MIC determination; for MIC, PH=4: peptide incubated at pH=4 for 4 h prior to MIC determination; for MIC, PH=10: peptide incubated at pH=10 for 4 h prior to MIC determination; for MIC, PH=12: peptide incubated at pH=12 for 4 h prior to MIC determination
Beneficial strains = assay: Geometric mean of MICs; details: geometric mean of MICs against beneficial strains; >128 counted as 256 μM
E. coli = assay: Geometric mean of MICs, selectivity and targeting indices; details: for TI Beneficial strains (targeting index): GM(E. coli)/GM(beneficial strains); for TI Beneficial strains (targeting index) / TI Pathogenic strains (targeting index): smaller = greater specificity; for TI Pathogenic strains (targeting index): GM(E. coli)/GM(other pathogenic strains); for SI E. coli (selectivity index): MHC/GM (E. coli), MHC >128 counted as 256 μM, larger = greater cell selectivity; for TI All (TIall, targeting index): all strains, smaller = greater specificity for E. coli; for GM E. coli: geometric mean of MICs against the 6 E. coli strains, >128 counted as 256 μM

SMILES | MIC, Control (E. coli ATCC25922) [µM] | MIC, FeCl3 (E. coli ATCC25922) [µM] | MIC, MgCl2 (E. coli ATCC25922) [µM] | MIC, KCl (E. coli ATCC25922) [µM] | MIC, NaCl (E. coli ATCC25922) [µM] | MIC, PH=2 (E. coli ATCC25922) [µM] | MIC, PH=4 (E. coli ATCC25922) [µM] | MIC, PH=10 (E. coli ATCC25922) [µM] | MIC, PH=12 (E. coli ATCC25922) [µM] | GM Beneficial strains (Beneficial strains) [µM] | TI Beneficial strains (targeting index) (E. coli) | TI Pathogenic strains (targeting index) (E. coli) | SI E. coli (selectivity index) (E. coli) | TI All (TIall, targeting index) (E. coli) | GM E. coli (E. coli) [µM]
CC[C@H](C)[C@H](NC(=O)CNC(=O)[C@H]1CCCN1C(=O)[C@H](CCCCN)NC(=O)[C@H](Cc1c[nH]c2ccccc12)NC(=O)[C@@H](NC(=O)[C@H](CCCCN)NC(=O)[C@H](CCCCN)NC(=O)[C@@H](N)Cc1c[nH]c2ccccc12)[C@@H](C)CC)C(=O)N[C@@H](CCCCN)C(=O)N[C@@H](CCCCN)C(=O)N[C@@H](Cc1c[nH]c2ccccc12)C(=O)N[C@H](C(=O)N[C@@H](CCCCN)C(=O)NCC(=O)NCC(=O)NCC(=O)N[C@@H](CCCCN)C(=O)O)[C@@H](C)CC [Peptide 5] (H-WKKIWK[dP]GIKKWIKGGGK-OH; N-terminus and C-terminus assumed) | 8 | 8 | 32 | 8 | >64 | 32 | 32 | 16 | 16 | 256.000 | 0.044 | 0.050 | 22.627 | 0.047 | 11.314
CC[C@H](C)[C@H](NC(=O)CNC(=O)[C@H]1CCCN1C(=O)[C@H](CCCCN)NC(=O)[C@H](Cc1c[nH]c2ccccc12)NC(=O)[C@@H](NC(=O)[C@H](CCCCN)NC(=O)[C@H](CCCCN)NC(=O)[C@@H](N)Cc1c[nH]c2ccccc12)[C@@H](C)CC)C(=O)N[C@@H](CCCCN)C(=O)N[C@@H](CCCCN)C(=O)N[C@@H](Cc1c[nH]c2ccccc12)C(=O)N[C@H](C(=O)N[C@@H](CCCCN)C(=O)NCC(=O)NCC(=O)NCC(=O)N[C@@H](CCCCN)C(=O)N[C@@H](CCCCN)C(=O)O)[C@@H](C)CC [Peptide 6] (H-WKKIWK[dP]GIKKWIKGGGKK-OH; N-terminus and C-terminus assumed) | 8 | 8 | 32 | 8 | >64 | 32 | 16 | 16 | 16 | 256.000 | 0.050 | 0.056 | 20.159 | 0.053 | 12.699
CC[C@H](C)[C@H](NC(=O)CNC(=O)[C@H]1CCCN1C(=O)[C@H](CCCCN)NC(=O)[C@H](Cc1c[nH]c2ccccc12)NC(=O)[C@@H](NC(=O)[C@H](CCCCN)NC(=O)[C@@H](NC(=O)[C@@H](N)Cc1c[nH]c2ccccc12)[C@@H](C)CC)[C@@H](C)CC)C(=O)N[C@@H](CCCCN)C(=O)N[C@@H](CCCCN)C(=O)N[C@@H](Cc1c[nH]c2ccccc12)C(=O)N[C@H](C(=O)N[C@@H](CCCCN)C(=O)O)[C@@H](C)CC [Peptide 7] (H-WIKIWK[dP]GIKKWIK-OH; N-terminus and C-terminus assumed) | 32 | 32 | >64 | 32 | >64 | 32 | 32 | 32 | 32 | 256.000 | 0.099 | 0.111 | 10.080 | 0.105 | 25.398
CC[C@H](C)[C@H](NC(=O)CNC(=O)[C@H]1CCCN1C(=O)[C@H](CCCCN)NC(=O)[C@H](Cc1c[nH]c2ccccc12)NC(=O)[C@@H](NC(=O)[C@H](CCCCN)NC(=O)[C@H](CCCCN)NC(=O)[C@@H](N)Cc1c[nH]c2ccccc12)[C@@H](C)CC)C(=O)N[C@@H](CCCCN)C(=O)N[C@@H](CCCCN)C(=O)N[C@@H](Cc1c[nH]c2ccccc12)C(=O)N[C@@H](CCCCN)C(=O)N[C@@H](CCCCN)C(=O)O [Peptide 8] (H-WKKIWK[dP]GIKKWKK-OH; N-terminus and C-terminus assumed) | 16 | 16 | 32 | 16 | >64 | 64 | 32 | 16 | 64 | 256.000 | 0.079 | 0.079 | 12.699 | 0.079 | 20.159

Reference: article doi:10.1101/679977v1 (bioRxiv, 2019)
